Where “and” joins values, the source holds several entries; their conditions need not be identical. Identical values can stand only once. Like-named read-outs stand apart in the source and are kept apart here.
Legend:
[1] = design: species or system C57BL/6 wild-type mice; details: mouse, in vivo, po
Protocol: To verify that we can administer oleuropein chronically to mice, we added purified oleuropein to drinking water at concentrations of 5 μg/ml, 50 μg/ml, 500 μg/ml, and 5 mg/ml. The water intake of mice averages 5 ml per mouse per day, these dosages of oleuropein result in daily doses of 0.025 mg, 0.25 mg, 2.5 mg, and 25 mg per mouse per day (equivalent to 1, 10, 100, and 1000 mg/kg body weight). 5 male and 5 female C57BL/6 wild-type mice were used for each dose of oleuropein, and housed them in metabolic cages that allow precise determination of water intake and quantitative urine collection.
After seven days to 4 months of chronic steady-state administration, mice blood and urine were collected. 100 μl of serum or urine were extracted with 1 ml ethyl acetate, evaporated to dryness, and reconstituted with 25 μl water and 5 μl was injected for LC-MS analysis.
LC-MS quantitation was performed using an HP1100 equipped with diode array detector and ESI-mass spectrometer. LC was done using a C18 column (4×20 mm), with a 4 minute elution using a gradient of 5-95% CH3CN—H2O containing 1% acetic acid. The diode array recordings were made at 280 nm and 230 nm, and the ESI mass spectrum was made in negative detection mode. Purified oleuropein, and hydroxytyrosol (synthesized by us) were used as standards. The injection volumes were 5 μl. […]

[2] = target: T1, HIV-1 gp41 fusion core 6HB (N36 + C34) (Human immunodeficiency virus type 1 group M subtype B, UniProt P04578); assay: Fusion core 6HB formation by native PAGE; details: Inhibitory Activity EC50 Fusion Core Formation 6HB (N36 + C34) N-PAGE, N36 pre-incubated with compound
Protocol: (§1) Fusion complex formation was carried out by incubating equimolar amounts of HIV-1 gp41 fusion peptides N36 and C34 in PBS (Phosphate Buffer Saline, containing 50 mM sodium phosphate, pH 7.2 and 150 mM NaCl) at 10 or 20 μM each at 37° C. […] Next, an equimolar amount of C34 was added and the samples incubated for 30 min.
N-PAGE was carried out as previously reported [13] with modifications that involve fusion peptide concentration, order of reactions, and time of incubation in fusion complex formation. Tris-glycine gels (18%, Invitrogen, Carlsbad, Calif.) were electrophoresed at 120 V for 2 h, stained with Coomassie Blue and analyzed by densitometry.

HIV-1 [3] = type: cell-based, HIV-1IIIB
[4] = tested on: HIV-1 primary isolates, M and T tropic strains from different clades; assay: Activity against a panel of HIV-1 primary isolates; type: cell-based
[5] = target: T1, HIV-1 gp41 fusion core 6HB (N36 + C34); assay: Fusion core 6HB formation by circular dichroism spectroscopy
Protocol: as §1
CD spectra were recorded on an AVIV 62-DS CD spectrometer, using 1 mm sample cells and a fixed temperature of 4° C. […] Each spectrum is a smoothed average of 10 scans. The bandwidth for each measurement was 1 nm. […] Prior to calculation of the final ellipticity, all spectra were corrected by subtracting the reference spectra of PBS without peptides.

HIV-1 [6] = assay: HIV-1 core protein p24 production; type: cell-based, HIV-1IIIB; details: Human immunodeficiency virus 1, 50% inhibition, read-out: Anti-HIV Activity EC50 P24
HIV-1 integrase [7] = target: T2, HIV-1 integrase (Human immunodeficiency virus type 1 group M subtype B, UniProt P12497, C1427S/F1332H); assay: HIV-1 integrase strand-transfer (integration) assay; type: biochemical; details: U3-GT into pUC18, read-out: Inhibitory Activity EC50 HIV-1 Integrase ST
HIV-1 integrase [8] = target: T2, HIV-1 integrase; assay: HIV-1 integrase disintegration assay; type: biochemical; details: read-out: EC50s of inhibition of disintegration product formation
in vitro = details: human
Protocol: Uninfected MT2 and H9 cell lines, and HIV-1IIIB chronically infected H9 (H9/HIV-1IIIB) and HIV-1/IIIB virus, were obtained through the AIDS Research and Reference Reagent Program, NIAID, NIH. […] The cell lines were cultured in RPMI medium 1640 containing 100 U/ml penicillin, 100 μg/ml streptomycin, 2 mM L-glutamine, and 10% heat-inactivated fetal calf serum. Viral stocks were prepared and standardized as described [8].
Cytotoxicity was evaluated by the MTT assay [8].

HIV-1 integrase [9] = target: T2, HIV-1 integrase; assay: HIV-1 integrase 3′-processing assay; type: biochemical; details: 21-mer U3 substrate, read-out: Inhibitory Activity EC50 HIV-1 Integrase 3′-Proc
apoE ko mice = assay: Diet-induced atherosclerosis in Western diet-fed apoE ko mouse; type: in vivo; details: 0.25 mg/ml in drinking water (daily dose 1.25 mg), 4 months
Protocol: To test whether oleuropein reduces diet-induced atherosclerosis, oleuropein was administered to apoE ko mice at various doses from 0.25 mg/ml, 2.5 mg/ml, and 25 mg/ml in the drinking water followed by feeding them with a Western diet containing 42% of calories from fat (Harlan-Teklad). […] The mice were sacrificed, blood and tissues collected. Aortas were dissected from the aortic valve to the iliac bifurcation, opened longitudinally, and pinned to a black wax surface. Atherosclerotic lesions were stained with Oil Red O. The total area of the aorta and the atherosclerotic lesion areas were determined by planimetry using Image Pro software.

[10] = Human immunodeficiency virus 1, syncytial formation, 50% inhibition, read-out: Anti-HIV Activity EC50 Syncytium

T1 sequence (P04578 546-581): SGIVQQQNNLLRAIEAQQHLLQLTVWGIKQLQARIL

Row | Structure (SMILES) | tolerability in animals [1] | EC50 [2] | EC50 (HIV-1 [3]; Human immunodeficiency virus 1, read-out: average EC50 for syncytial formation) | EC50 (HIV-1 [3]; [10]) | activity against HIV-1 primary isolates [4] | EC50 [5] | EC50 (HIV-1 [6]) | EC50 (HIV-1 integrase [7]) | EC50 (HIV-1 integrase [8]) | IC50 (in vitro) | EC50 (HIV-1 integrase [9]) | serum levels of oleuropein (apoE ko mice)
1 | C/C=C1/[C@H](O[C@@H]2O[C@H](CO)[C@@H](O)[C@H](O)[C@H]2O)OC=C(C(=O)OC)[C@H]1CC(=O)OCCc1ccc(O)c(O)c1 (single isomer, unassigned) [Ole, oleuropein] | well tolerated | ~66 nM and 66 nM | 55 nM | 55 ± 5 nM | active | 62 nM | 73 nM | 56 nM | 28 nM | > 10000 nM | 46 nM | comparable to those in animals fed a diet supplemented with olive oil
2 | OCCc1ccc(O)c(O)c1 [HT, hydroxytyrosol] |  | ~58 nM and 58 nM |  | 61 nM | active | 60 nM | 68 nM | 43 nM | 18 nM | > 10000 nM | 54 nM | 
